Measurements taken from the METLIN SMRT retention time set (Domingo-Almenara et al. 2019).

test: gradient 5% acetonitrile 3 min, to 50% in 2 min, to 85% in 15 min, held 3 min, 100 µL/min; details: column: Zorbax Extend-C18 2.1 x 50 mm; eluents: water / acetonitrile, 0.1% formic acid
Outline: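 A Zorbax Extend-C18 column (2.1 × 50 mm, 1.8 μm) run at 100 μL/min with water and acetonitrile, both containing 0.1% formic acid, separated mixtures of ~100 pure standards. The HPLC was coupled to a quadrupole time-of-flight mass spectrometer operated in positive and negative ionization mode, with dead and dwell volumes of 40 μL and 900 μL. Each retention time was taken from a computationally picked adduct peak that was then manually inspected.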

Row | RP-LC retention time [s] | Structure (SMILES)
1 | 757 | O=C(NCc1ccc(F)c(Cl)c1)C1CCN(c2cnc3nccnc3c2)CC1
2 | 924 | COc1ccc(C2c3c(n(C)c4ccccc34)C(=O)N2CC(=O)NCc2ccco2)cc1 (configuration not stated)
3 | 1260 | O=c1c2cc(-c3ccc(F)cc3)nn2cnn1Cc1nc(-c2ccc(Cl)c(F)c2)no1
4 | 670 | COc1cc2c(C(=O)OCCc3ccccn3)cn(-c3ccccc3)c(=O)c2cc1OC
5 | 957 | O=C(O)COC(=O)Cc1ccccc1Nc1c(Cl)cccc1Cl
6 | 872 | CC(C)c1nnc(-c2cccnc2N2CCN(C(=O)CC3CCCC3)CC2)o1
7 | 604 | O=C(c1ccc(F)cc1)N1CCN(c2ccc(N3CCCC3)nn2)CC1
8 | 647 | O=C(Cn1nc2nc(N3CCCC3)ccn2c1=O)Nc1ccc2c(c1)OCO2
9 | 829 | CC1CCN(C(=O)c2ccc(OCC3CCCN(C(=O)C4CCCO4)C3)cc2)CC1 (configuration not stated)
10 | 712 | COc1ccc(-c2c(C(=O)O)nnn2-c2ccc(OC)c(OC)c2)cc1
11 | 543 | CN1CCN(CCNC(=O)C2CCc3sc(C(=O)N4CCOCC4)cc3C2)CC1 (configuration not stated)
12 | 724 | COc1ccc(NS(=O)(=O)c2cc(-c3c(C)noc3NC(C)=O)ccc2OC)c(OC)c1
13 | 786 | CCc1ccc(CNC(=O)C2CCN(c3cnc(N4CCOCC4)nc3)CC2)cc1
14 | 653 | CN(C)C(CNC(=O)c1cc(-c2ccccc2)on1)c1ccco1 (configuration not stated)
15 | 1110 | c1ccc2c(CCNc3ccc(Nc4ccncc4)cc3)c[nH]c2c1
16 | 690 | N#Cc1ccccc1NC(=O)NCC1CN(c2ccc3c(c2)OCO3)C(=O)O1 (configuration not stated)
17 | 743 | O=C(C1CC1)N1CCc2sc(S(=O)(=O)Nc3ccc(N4CCOCC4)cc3)cc2C1
18 | 547 | Cc1ccnc(N2CCC(C(=O)N3CCC(C(N)=O)(N4CCCCC4)CC3)CC2)n1
19 | 1300 | CCCc1nc(-c2cc3cccc(C)c3nc2NCCc2ccc(S(N)(=O)=O)cc2)no1
20 | 1040 | CCOC(=O)c1cc(S(=O)(=O)N2CCCC2C(=O)Nc2nc3ccc(C)cc3s2)cn1C (configuration not stated)
21 | 700 | CCc1nn2c(CNC(=O)c3cccnc3)c(-c3ccccc3)nc2s1
22 | 745 | Cc1cccc(C)c1NC(=O)CN1C(=O)NC2(CCCCC2)C1=O

Row | RP-LC retention time [s] | Structure (SMILES)
23 | 1060 | CCN1C(=O)COc2ccc(-c3noc(-c4cccc(OC)c4OC)n3)cc21
24 | 660 | O=[N+]([O-])c1c(NCCO)cc(Nc2ccc3c(c2)OCCO3)c2nonc12
25 | 768 | O=C(NCCc1c[nH]c2ccc(Cl)cc12)c1ccc(CN2C(=O)CCn3nccc32)cc1
26 | 937 | CCN1C(=O)c2cccnc2Sc2cc(NC(=O)C3(c4ccccc4)CC3)ccc21
27 | 704 | CCN1C(=O)Cc2cc(C(=O)NCc3cccs3)ccc21
28 | 668 | CCc1ccc(NC(=O)NCc2ccnc(N3CCSCC3)c2)cc1
29 | 576 | CCn1ccc(C(=O)N2CCC(n3c(C)cnc3C3CCC3)C2)n1 (configuration not stated)
30 | 846 | CCOc1ccc(C(=O)N2CCC[C@@H]2C(=O)NCCc2csc(C)n2)cc1
31 | 1220 | CCOc1cccc(-c2noc(Cn3ccn4nc(-c5ccc(C)c(C)c5)cc4c3=O)n2)c1
32 | 1180 | COc1ccc(OC)c(NC(=O)CSc2cc(N3CCN(c4ccccc4F)CC3)ncn2)c1
33 | 999 | Cc1ccc(C)c(N2CCN(c3ccnc(SCC(=O)Nc4cccc(Cl)c4)n3)CC2)c1
34 | 753 | CCOc1ccc2nc(Nc3nc(C)cc(C(F)(F)F)n3)nc(C)c2c1
35 | 1120 | Cc1cc(NC(=O)C(=O)c2cccn2C)ccc1Br
36 | 850 | O=C(C1CCCN(c2nccnc2Sc2ccccc2)C1)N1CCOCC1 (configuration not stated)
37 | 644 | c1ccc(-c2noc(C3CCN(Cc4ccco4)C3)n2)cc1 (configuration not stated)
38 | 1140 | COc1ccc(-c2nc(-c3ccc(S(=O)(=O)N4CCCC4)cc3)no2)cc1
39 | 1260 | CC1CCCN(S(=O)(=O)c2ccc(C(=O)Nc3nc4c(s3)CCc3ccccc3-4)cc2)C1 (configuration not stated)
40 | 751 | CC(C)CC(=O)N1C[C@H](c2nc(-c3cccnc3)no2)[C@@H](C)C1
41 | 1130 | O=C(Nc1ccc(Cl)cc1)N1CCc2nc(-c3ccc(Cl)cc3)ncc2C1
42 | 608 | COCC1CN(S(=O)(=O)c2ccc(C#N)cc2)CC12CCNCC2 (configuration not stated)
43 | 700 | Cc1ccc(C)c(NS(=O)(=O)c2cc(-c3[nH]ncc3C(=O)N(C)C)oc2C)c1
44 | 775 | CN(Cc1ccccc1)C(=O)c1ccc(NC(=O)[C@H]2[C@@H]3C[C@@H]4[C@H]2C(=O)O[C@@H]4C3)cc1

Row | RP-LC retention time [s] | Structure (SMILES)
45 | 834 | CCOC(=O)CCc1c(C)nn(-c2cc(N(C)C)ncn2)c1C
46 | 1320 | Cc1cccc(-c2nc(Cn3nnc(-c4nc(-c5ccc(Cl)cc5)no4)c3C)c(C)o2)c1
47 | 712 | CC(=O)N1CCc2cc(N3CC(C(=O)Nc4cccc(C)c4)CC3=O)ccc21 (configuration not stated)
48 | 718 | CCN(CC)C(=O)c1ccc(O)c(OC)c1
49 | 649 | Cc1ccc(CNC(=O)C2CCCN(c3nnc4ccccn34)C2)o1 (configuration not stated)
50 | 730 | COc1ccc(C2Nc3ccccc3NC3=C2C(=O)CC(c2cccs2)C3)cc1OC (configuration not stated)
51 | 1260 | Cc1oc(-c2cccc(Cl)c2)nc1CN(c1ccccc1)S(=O)(=O)c1cccs1
52 | 1030 | CCn1c(=O)c(N2CCN(C(=O)Nc3cccc(Br)c3)CC2)nc2ccccc21
53 | 591 | Cc1nnc(N2CCCC(C(=O)NCCN3CCCC3)C2)c2nn(-c3ccc(Cl)cc3)c(C)c12 (configuration not stated)
54 | 591 | CCOCCCNC(=O)N1CCOc2ccc(CN(CC)CC)cc2C1
55 | 948 | O=C(NC1CC1)c1ccc2c(c1)CCN2C(=O)C1CCCC1
56 | 860 | COC(=O)c1cccc(N2C=C(C#N)S(=O)(=O)c3ccc(F)cc32)c1
57 | 877 | COc1cc(OC)cc(-c2nc(C3CC(=O)N(c4ccc(OC)c(OC)c4)C3)no2)c1 (configuration not stated)
58 | 534 | CCOc1nccnc1N1CCC(NC(=O)Cc2cccnc2)C1 (configuration not stated)
59 | 757 | COc1ccc(NC(=O)CSc2cc(C)nc(-c3cnccn3)n2)cc1Cl
60 | 831 | CCc1nc(-c2csc(S(=O)(=O)N3CCCC(C(=O)Nc4ccc(C)cn4)C3)c2)no1 (configuration not stated)
61 | 769 | O=C(NCc1csc(-c2cccs2)n1)C1CCN(C(=O)c2c(F)cccc2F)CC1
62 | 807 | Cc1ccc2nc(-c3cccc(Cl)c3)c(Nc3ccccc3C)n2c1
63 | 839 | COc1ccc(C(=O)Nc2cccn3nc(C4CC4)nc23)cc1
64 | 605 | O=C(NCCCN1CCCC1=O)C1CCCN(c2ncnc3c2nc2n3CCCCC2)C1 (configuration not stated)
65 | 812 | COc1ccc(-c2nnc(COc3ccc(NC(=O)CNC(=O)Cc4ccccc4)cc3)o2)cc1
66 | 912 | Cc1ccc(C(=O)N2CCCCCCN(C)C(=O)[C@@H]3CCC[C@@H]32)s1

Row | RP-LC retention time [s] | Structure (SMILES)
67 | 674 | O=C(NCc1ccccn1)c1csc(Nc2ccc(OC(F)(F)F)cc2)n1
68 | 664 | CC1=C(c2ccc(F)cc2)S(=O)(=O)N=C1N1CCC(NC(=O)C2CCOC2)CC1 (configuration not stated)
69 | 762 | COc1ccc(NS(=O)(=O)c2cc3c(s2)CCN(C(=O)C2CC2)C3)cc1F
70 | 645 | Cc1ccc(CC(=O)N(CCS(=O)(=O)N2CCNCC2)CC2CCCO2)cc1 (configuration not stated)
71 | 844 | COc1ccc(-c2nnc(-c3ccc(OC)c(S(=O)(=O)N4CCCC4)c3)o2)cc1OC
72 | 600 | C=C(C)Cn1c(CNC(=O)c2ccccc2)nc2ccccc21
73 | 773 | CCOC(=O)c1[nH]c(C)c(CCC(=O)N2CCC(C(=O)NCc3cccc(OC)c3)CC2)c1C
74 | 648 | Cc1ccc(NC(=O)N2CCN(CCn3c(C(F)(F)F)nc4cccnc43)CC2)cc1
75 | 1080 | CCN1C(=O)COc2ccc(-c3csc(NC(=O)c4ccc(Br)cc4)n3)cc21
76 | 880 | COc1ccccc1-c1noc(CN2C(=O)COc3ccccc32)n1
77 | 599 | COCCn1c(CC2CCN(C(=O)Cc3ccsc3)C2)nc2cccnc21 (configuration not stated)
78 | 794 | CSc1ccc(CNC(=O)Cc2nnc(-c3cccc(F)c3)o2)cc1
79 | 854 | CCS(=O)(=O)c1nc2ccc(NS(=O)(=O)c3cc(F)ccc3F)cc2s1
80 | 818 | CCc1cccc(NC(=O)C2CCCN(C(=O)C3Sc4ccccc4NC3=O)C2)c1 (configuration not stated)
81 | 678 | CN(C)C(=O)c1ccc2c(c1)nnn2CCNC(=O)Nc1cccc(Br)c1
82 | 785 | O=C(NC1CC1)C1CCCN(c2ccc(Sc3ccc(Br)cc3)nn2)C1 (configuration not stated)
83 | 668 | CCOC(=O)c1c(C)[nH]c(C)c1S(=O)(=O)N1CCC(C(=O)NCc2cccc(C)c2)CC1
84 | 998 | CCc1nc(-c2cc(S(=O)(=O)NCC(=O)NC3CCCc4ccccc43)c(C)s2)no1 (configuration not stated)
85 | 901 | CCCn1c(=O)sc2cc(S(=O)(=O)N3CCC(C(=O)N(C)Cc4ccco4)CC3)ccc21
86 | 665 | CCC(=O)N1CCc2cc(CNC(=O)c3ccnn3C)ccc21

Row | Structure (SMILES) | RP-LC retention time [s]
87 | CCN1CCCc2cc(C(=O)N3CCC4(CC3)OCCO4)sc21 | 603
